± gives the uncertainty stated by the source.
Assay: xn = mol fraction of the nth substance listed

CCCCCCO + C1CCCCC1
Conditions	viscosity [mPa·s]
293.15 K, 100 kPa, x2 = 0.0817	4.68 ± 0.38
293.15 K, 100 kPa, x2 = 0.1603	4.1 ± 0.33
293.15 K, 100 kPa, x2 = 0.2421	3.55 ± 0.29
293.15 K, 100 kPa, x2 = 0.3502	2.91 ± 0.23
293.15 K, 100 kPa, x2 = 0.4409	2.45 ± 0.2
293.15 K, 100 kPa, x2 = 0.5593	1.94 ± 0.16
293.15 K, 100 kPa, x2 = 0.6517	1.64 ± 0.13
293.15 K, 100 kPa, x2 = 0.7396	1.4 ± 0.11
293.15 K, 100 kPa, x2 = 0.8512	1.18 ± 0.1
293.15 K, 100 kPa, x2 = 0.9402	1.05 ± 0.08
303 K, 101.33 kPa, x1 = 0.1	0.8842 ± 0.02
303 K, 101.33 kPa, x1 = 0.2008	1.003 ± 0.022
303 K, 101.33 kPa, x1 = 0.2997	1.155 ± 0.025
303 K, 101.33 kPa, x1 = 0.4002	1.329 ± 0.029
303 K, 101.33 kPa, x1 = 0.4994	1.58 ± 0.035
303 K, 101.33 kPa, x1 = 0.6004	1.919 ± 0.044
303 K, 101.33 kPa, x1 = 0.6986	2.266 ± 0.055
303 K, 101.33 kPa, x1 = 0.8004	2.705 ± 0.069
303 K, 101.33 kPa, x1 = 0.8991	3.173 ± 0.086
303.15 K, 100 kPa, x2 = 0.0817	3.47 ± 0.28
303.15 K, 100 kPa, x2 = 0.1603	3.06 ± 0.25
303.15 K, 100 kPa, x2 = 0.2421	2.68 ± 0.22
303.15 K, 100 kPa, x2 = 0.3502	2.23 ± 0.18
303.15 K, 100 kPa, x2 = 0.4409	1.91 ± 0.15
303.15 K, 100 kPa, x2 = 0.5593	1.56 ± 0.13
303.15 K, 100 kPa, x2 = 0.6517	1.34 ± 0.11
303.15 K, 100 kPa, x2 = 0.7396	1.14 ± 0.09
303.15 K, 100 kPa, x2 = 0.8512	0.96 ± 0.08
303.15 K, 100 kPa, x2 = 0.9402	0.86 ± 0.07
303.15 K, 101 kPa, x1 = 0.6491	1.907 ± 0.2
303.15 K, 101.33 kPa, x1 = 0.1085	0.9365 ± 0.012
303.15 K, 101.33 kPa, x1 = 0.2023	1.058 ± 0.013
303.15 K, 101.33 kPa, x1 = 0.3065	1.225 ± 0.015
303.15 K, 101.33 kPa, x1 = 0.3939	1.392 ± 0.017
303.15 K, 101.33 kPa, x1 = 0.5019	1.641 ± 0.019
303.15 K, 101.33 kPa, x1 = 0.6052	1.93 ± 0.023
303.15 K, 101.33 kPa, x1 = 0.701	2.255 ± 0.026
303.15 K, 101.33 kPa, x1 = 0.7991	2.649 ± 0.03
303.15 K, 101.33 kPa, x1 = 0.8894	3.088 ± 0.035
308.15 K, 101 kPa, x1 = 0.6491	1.701 ± 0.17
313 K, 101.33 kPa, x1 = 0.1	0.7554 ± 0.018
313 K, 101.33 kPa, x1 = 0.2008	0.8505 ± 0.019
313 K, 101.33 kPa, x1 = 0.2997	0.9723 ± 0.021
313 K, 101.33 kPa, x1 = 0.4002	1.115 ± 0.024
313 K, 101.33 kPa, x1 = 0.4994	1.302 ± 0.027
313 K, 101.33 kPa, x1 = 0.6004	1.526 ± 0.032
313 K, 101.33 kPa, x1 = 0.6986	1.781 ± 0.039
313 K, 101.33 kPa, x1 = 0.8004	2.083 ± 0.047
313 K, 101.33 kPa, x1 = 0.8991	2.417 ± 0.057
313.15 K, 100 kPa, x2 = 0.0817	2.61 ± 0.21
313.15 K, 100 kPa, x2 = 0.1603	2.33 ± 0.19
313.15 K, 100 kPa, x2 = 0.2421	2.04 ± 0.16
313.15 K, 100 kPa, x2 = 0.3502	1.72 ± 0.14
313.15 K, 100 kPa, x2 = 0.4409	1.49 ± 0.12
313.15 K, 100 kPa, x2 = 0.5593	1.24 ± 0.1
313.15 K, 100 kPa, x2 = 0.6517	1.08 ± 0.09
313.15 K, 100 kPa, x2 = 0.7396	0.93 ± 0.08
313.15 K, 100 kPa, x2 = 0.8512	0.79 ± 0.06
313.15 K, 100 kPa, x2 = 0.9402	0.72 ± 0.06
313.15 K, 101 kPa, x1 = 0.6491	1.63 ± 0.17
323 K, 101.33 kPa, x1 = 0.1	0.65 ± 0.016
323 K, 101.33 kPa, x1 = 0.2008	0.7271 ± 0.017
323 K, 101.33 kPa, x1 = 0.2997	0.8205 ± 0.018
323 K, 101.33 kPa, x1 = 0.4002	0.9237 ± 0.02
323 K, 101.33 kPa, x1 = 0.4994	1.061 ± 0.022
323 K, 101.33 kPa, x1 = 0.6004	1.239 ± 0.025
323 K, 101.33 kPa, x1 = 0.6986	1.433 ± 0.029
323 K, 101.33 kPa, x1 = 0.8004	1.658 ± 0.034
323 K, 101.33 kPa, x1 = 0.8991	1.896 ± 0.04
323.15 K, 100 kPa, x2 = 0.0817	2.02 ± 0.16
323.15 K, 100 kPa, x2 = 0.1603	1.8 ± 0.14
323.15 K, 100 kPa, x2 = 0.2421	1.6 ± 0.13
323.15 K, 100 kPa, x2 = 0.3502	1.36 ± 0.11
323.15 K, 100 kPa, x2 = 0.4409	1.19 ± 0.1
323.15 K, 100 kPa, x2 = 0.5593	1 ± 0.08
323.15 K, 100 kPa, x2 = 0.6517	0.87 ± 0.07
323.15 K, 100 kPa, x2 = 0.7396	0.77 ± 0.06
323.15 K, 100 kPa, x2 = 0.8512	0.67 ± 0.05
323.15 K, 100 kPa, x2 = 0.9402	0.61 ± 0.05

O=C1CCCCC1 + C1CCCCC1
Conditions	viscosity [mPa·s]
298.15 K, 101.3 kPa, x2 = 0.4895	1.275 ± 0.02
303.15 K, 101 kPa, x2 = 0.1065	1.596 ± 0.019
303.15 K, 101 kPa, x2 = 0.2078	1.451 ± 0.017
303.15 K, 101 kPa, x2 = 0.3013	1.32 ± 0.015
303.15 K, 101 kPa, x2 = 0.3971	1.214 ± 0.014
303.15 K, 101 kPa, x2 = 0.5022	1.102 ± 0.013
303.15 K, 101 kPa, x2 = 0.604	1.027 ± 0.012
303.15 K, 101 kPa, x2 = 0.7024	0.9614 ± 0.011
303.15 K, 101 kPa, x2 = 0.8086	0.8788 ± 0.01
303.15 K, 101 kPa, x2 = 0.8742	0.8504 ± 0.01
303.15 K, 101 kPa, x2 = 0.9034	0.8387 ± 0.0099

CC(C)CC(C)(C)C + C1COCCO1
viscosity [mPa·s], 101 kPa
Conditions	x2 = 0.1085	x2 = 0.2061	x2 = 0.2943	x2 = 0.3746	x2 = 0.515	x2 = 0.6337	x2 = 0.6865	x2 = 0.8237	x2 = 0.9008
293.15 K	0.5237 ± 0.0039	0.5426 ± 0.0041	0.5664 ± 0.0043	0.5961 ± 0.0045	0.6613 ± 0.005	0.7446 ± 0.0057	0.7922 ± 0.0061	0.9589 ± 0.0074	1.083 ± 0.0084
298.15 K	0.4947 ± 0.0037	0.5119 ± 0.0039	0.5334 ± 0.0041	0.561 ± 0.0043	0.6252 ± 0.0048	0.6968 ± 0.0054	0.7388 ± 0.0057	0.885 ± 0.0069	0.9979 ± 0.0078
303.15 K	0.4683 ± 0.0036	0.4835 ± 0.0037	0.5036 ± 0.0039	0.5289 ± 0.0041	0.5825 ± 0.0045	0.6529 ± 0.0051	0.6909 ± 0.0054	0.8248 ± 0.0065	0.9282 ± 0.0073
308.15 K	0.4438 ± 0.0034	0.4578 ± 0.0035	0.4761 ± 0.0037	0.4992 ± 0.0039	0.5485 ± 0.0043	0.6141 ± 0.0048	0.6485 ± 0.0051	0.7634 ± 0.006	0.857 ± 0.0068
313.15 K	0.4211 ± 0.0033	0.4352 ± 0.0034	0.4507 ± 0.0035	0.4727 ± 0.0037	0.5181 ± 0.0041	0.5788 ± 0.0046	0.6082 ± 0.0048	0.7242 ± 0.0057	0.7993 ± 0.0064

O=C1CCCCC1 + C1COCCO1
viscosity [mPa·s], 101 kPa
Conditions	x1 = 0.099	x1 = 0.2022	x1 = 0.31	x1 = 0.4227	x1 = 0.5406	x1 = 0.6641	x1 = 0.728	x1 = 0.8607	x1 = 0.9295
293.15 K	1.323 ± 0.01	1.352 ± 0.011	1.396 ± 0.011	1.463 ± 0.011	1.56 ± 0.012	1.694 ± 0.013	1.782 ± 0.014	2.003 ± 0.015	2.148 ± 0.017
298.15 K	1.214 ± 0.0096	1.239 ± 0.0098	1.281 ± 0.01	1.341 ± 0.01	1.429 ± 0.011	1.544 ± 0.012	1.626 ± 0.013	1.816 ± 0.014	1.941 ± 0.015
303.15 K	1.12 ± 0.0089	1.142 ± 0.0091	1.184 ± 0.0094	1.235 ± 0.0097	1.324 ± 0.01	1.417 ± 0.011	1.489 ± 0.012	1.657 ± 0.013	1.769 ± 0.014
308.15 K	1.036 ± 0.0083	1.06 ± 0.0085	1.094 ± 0.0087	1.145 ± 0.0091	1.224 ± 0.0097	1.315 ± 0.01	1.373 ± 0.011	1.513 ± 0.012	1.618 ± 0.013
313.15 K	0.9598 ± 0.0077	0.9803 ± 0.0079	1.017 ± 0.0081	1.063 ± 0.0085	1.143 ± 0.0091	1.212 ± 0.0096	1.263 ± 0.0099	1.39 ± 0.011	1.497 ± 0.012

CCOCC + C=C(C)C(=O)OC
298.15 K, 101.3 kPa
Conditions	viscosity [mPa·s]
x2 = 0.0454	0.249 ± 0.003
x2 = 0.1483	0.281 ± 0.003
x2 = 0.249	0.314 ± 0.003
x2 = 0.3495	0.349 ± 0.003
x2 = 0.4486	0.385 ± 0.003
x2 = 0.4908	0.4 ± 0.004
x2 = 0.5479	0.421 ± 0.004
x2 = 0.6504	0.459 ± 0.004
x2 = 0.7501	0.496 ± 0.004
x2 = 0.8488	0.532 ± 0.004
x2 = 0.947	0.567 ± 0.004

C=C(C)[C@@H]1CC=C(C)CC1 + C=CC(C)(O)CCC=C(C)C
viscosity [mPa·s], 101.33 kPa
Conditions	x1 = 0.0422	x1 = 0.1332	x1 = 0.2273	x1 = 0.3523	x1 = 0.4816	x1 = 0.562	x1 = 0.6389	x1 = 0.7679	x1 = 0.8478	x1 = 0.9236
298.15 K	4.062 ± 0.032	3.237 ± 0.026	2.695 ± 0.021	2.072 ± 0.016	1.626 ± 0.013	1.429 ± 0.011	1.282 ± 0.01	1.101 ± 0.009	1.013 ± 0.008	0.933 ± 0.008
313.15 K	2.37 ± 0.019	2.025 ± 0.016	1.731 ± 0.014	1.427 ± 0.012	1.196 ± 0.01	1.086 ± 0.009	0.998 ± 0.008	0.877 ± 0.007	0.814 ± 0.007	0.755 ± 0.006
